Measurements from US11242337B2, “Compounds useful for treating gastrointestinal tract disorders” (Ardelyx, Inc., priority 2017, dated 2022).

Biological target: T1, NHE3 (Homo sapiens, UniProt P48764)
T1 construct: expressed in transfected cells
T1 sequence (P48764 26-834): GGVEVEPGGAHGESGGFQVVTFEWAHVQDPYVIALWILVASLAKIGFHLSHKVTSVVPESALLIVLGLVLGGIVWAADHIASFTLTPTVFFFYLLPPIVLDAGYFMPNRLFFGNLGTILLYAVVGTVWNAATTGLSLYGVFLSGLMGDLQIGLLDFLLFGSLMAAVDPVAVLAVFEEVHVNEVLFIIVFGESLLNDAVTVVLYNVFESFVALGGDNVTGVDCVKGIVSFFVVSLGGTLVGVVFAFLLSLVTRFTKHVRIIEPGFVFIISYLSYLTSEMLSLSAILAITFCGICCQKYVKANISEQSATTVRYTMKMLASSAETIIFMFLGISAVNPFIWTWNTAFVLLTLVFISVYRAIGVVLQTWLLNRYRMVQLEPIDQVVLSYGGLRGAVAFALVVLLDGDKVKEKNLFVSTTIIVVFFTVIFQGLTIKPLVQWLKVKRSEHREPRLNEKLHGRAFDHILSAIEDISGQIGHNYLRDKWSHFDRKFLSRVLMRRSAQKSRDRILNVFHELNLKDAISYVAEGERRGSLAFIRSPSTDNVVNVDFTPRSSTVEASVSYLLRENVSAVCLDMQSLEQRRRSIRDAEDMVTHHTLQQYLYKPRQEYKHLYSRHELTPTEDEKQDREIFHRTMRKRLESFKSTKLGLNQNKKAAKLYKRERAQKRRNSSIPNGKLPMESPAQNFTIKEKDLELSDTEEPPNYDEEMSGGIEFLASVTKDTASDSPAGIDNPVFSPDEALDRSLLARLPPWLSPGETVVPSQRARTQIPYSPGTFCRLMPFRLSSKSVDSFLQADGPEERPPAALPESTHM
T1 sequence (Q99653 2-195 partner limits assumed): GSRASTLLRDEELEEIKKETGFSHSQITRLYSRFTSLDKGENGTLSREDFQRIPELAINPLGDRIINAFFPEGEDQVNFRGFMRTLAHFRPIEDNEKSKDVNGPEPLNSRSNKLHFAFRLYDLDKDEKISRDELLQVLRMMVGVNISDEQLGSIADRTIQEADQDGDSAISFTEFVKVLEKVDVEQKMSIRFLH
Experiment: Cell-based assay of NHE-3 activity (persistent inhibition), human
Settings: human Persistence, 60 min incubation then washout
Summary of the method: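 Persistent inhibition: compound (0-30 μM, 60 min, RT, NaCl-HEPES pH 7.4) removed before assay. Human NHE3/NHERF2 PS120 cells were then BCECF-loaded during NH4Cl pulse (30 min, 37 °C), acidified in Na+-free buffer, and Na+ added 10 min after washout; antiport measured as initial fluorescence-ratio change per minute.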

% inhibition	pIC50	Structure (SMILES)
C (>70%)	C (NHE3 pIC50 > 7)	C[C@@H]1CN([C@H]2Cc3c(C#N)cc(Cl)cc3[C@@H]2Oc2ccc(S(=O)(=O)N[C@H]3CCN(CCOCCNC(=O)NCCCCNC(=O)NCCOCCN4CC[C@H](NS(=O)(=O)c5ccc(O[C@H]6c7cc(Cl)cc(C#N)c7C[C@@H]6N6CCN[C@H](C)C6)cc5)C4)C3)cc2)CCN1 [Example 132, 4-([(1S,2S)-6-Chloro-4-cyano-2-[(R)-3-methylpiperazin-1-yl]-2,3-dihydro-1H-inden-1-yl]oxy)-N—[(S)-1-(20-[(S)-3-([4-([(1S,2S)-6-chloro-4-cyano-2-[(R)-3-methylpiperazin-1-yl]-2,3-dihydro-1H-inden-1-yl]oxy)phenyl]sulfonamido)pyrrolidin-1-yl]-7,14-diaxo-3,18-dioxa-5,8,13,15-tetraazaicosyl)pyrrolidin-3-yl]benzenesulfonamide; bis(trifluoroacetic acid)]
C (>70%)	C (NHE3 pIC50 > 7)	C[C@@H]1CN([C@H]2Cc3c(C#N)cc(Cl)cc3[C@@H]2Oc2ccc(S(=O)(=O)N[C@@H]3CCN(CCOCCNC(=O)NCCCCNC(=O)NCCOCCN4CC[C@@H](NS(=O)(=O)c5ccc(O[C@H]6c7cc(Cl)cc(C#N)c7C[C@@H]6N6CCN[C@H](C)C6)cc5)C4)C3)cc2)CCN1 [Example 133, 4-([(1S,2S)-6-Chloro-4-cyano-2-[(R)-3-methylpiperazin-1-yl]-2,3-dihydro-1H-inden-1-yl]oxy)-N—[(R)-1-(20-[(R)-3-([4-([(1S,2S)-6-chloro-4-cyano-2-[(R)-3-methylpiperazin-1-yl]-2,3-dihydro-1H-inden-1-yl]oxy)phenyl]sulfonamido)pyrrolidin-1-yl]-7,14-dioxo-3,18-dioxa-6,8,13,15-tetraazaicosyl)pyrrolidin-3-yl]benzenesulfonamide; bis(trifluoroacetic acid)]
C (>70%)	C (NHE3 pIC50 > 7)	N#Cc1cc(Cl)cc2c1C[C@H](N1CCNCC1)[C@H]2Oc1ccc(S(=O)(=O)N[C@H]2CCN(C(=O)CCCNC(=O)NCCCCNC(=O)NCCCC(=O)N3CC[C@H](NS(=O)(=O)c4ccc(O[C@H]5c6cc(Cl)cc(C#N)c6C[C@@H]5N5CCNCC5)cc4)C3)C2)cc1 [Example 143, 4-([(1S,2S)-6-Chloro-4-cyano-2-(piperazin-1-yl)-2,3-dihydro-1H-inden-1-yl]oxy)-N—[(S)-1-(18-[(S)-3-([4-([(1S,2S)-6-chloro-4-cyano-2-(piperazin-1-yl)-2,3-dihydro-1H-inden-1-yl]oxy)phenyl]sulfonamido)pyrrolidin-1-yl]-6,13,18-trioxo-5,7,12,14-tetraazaoctadecanoyl)pyrrolidin-3-yl]benzenesulfonamide]

The remaining lines, values behind:

Structure (SMILES)	% inhibition	pIC50
Cc1cc(Cl)cc2c1C[C@H](N1CCC[C@@H](N(C)C)C1)[C@H]2Oc1ccc(S(=O)(=O)NCCOCCOCCNC(=O)NCCCCNC(=O)NCCOCCOCCNS(=O)(=O)c2ccc(O[C@H]3c4cc(Cl)cc(C)c4C[C@@H]3N3CCC[C@@H](N(C)C)C3)c(F)c2)cc1F [Example 30, 3-[2-(2-[2-[(4-[[(1S,2S)-6-Chloro-2-[(3R)-3-(dimethylamino)piperidin-1-yl]-4-methyl-2,3-dihydro-1H-inden-1-yl]oxy]-3-fluorobenzene)sulfonamido]ethoxy]ethoxy)ethyl]-1-[4-([[2-(2-[2-[(4-[[(1S,2S)-6-chloro-2-[(3R)-3-(dimethylamino)piperidin-1-yl]-4-methyl-2,3-dihydro-1H-inden-1-yl]oxy]-3-fluorobenzene)sulfonamido]ethoxy]ethoxy)ethyl]carbamoyl]amino)butyl]urea; bis(trifluoroacetic acid)]	C (>70%)	C (NHE3 pIC50 > 7)
Cc1cc(S(=O)(=O)N[C@@H]2CCN(CCOCCNC(=O)NCCCCNC(=O)NCCOCCN3CC[C@@H](NS(=O)(=O)c4ccc(O[C@H]5c6cc(Cl)cc(Cl)c6C[C@@H]5N(C)C)c(C)c4)C3)C2)ccc1O[C@H]1c2cc(Cl)cc(Cl)c2C[C@@H]1N(C)C [Example 53, 3-(2-[2-[(3R)-3-[(4-[[(1S,2S)-4,6-Dichloro-2-(dimethylamino)-2,3-dihydro-1H-inden-1-yl]oxy]-3-methylbenzene)sulfonamido]pyrrolidin-1 yl]ethoxy]ethyl)-1-(4-[[(2-[2-[(3R)-3-[(4-[[(1S,2S)-4,6-dichloro-2-(dimethylamino)-2,3-dihydro-1H-inden-1-yl]oxy]-3-methylbenzene)sulfonamido]pyrrolidin-1-yl]ethoxy]ethyl)carbamoyl]amino]butyl)urea]	C (>70%)	C (NHE3 pIC50 > 7)
Cc1cc(O[C@H]2c3cc(Cl)cc(Cl)c3C[C@@H]2N(C)C)c(F)cc1S(=O)(=O)NCCOCCOCCNC(=O)NCCCCNC(=O)NCCOCCOCCNS(=O)(=O)c1cc(F)c(O[C@H]2c3cc(Cl)cc(Cl)c3C[C@@H]2N(C)C)cc1C [Example 88, 3-[2-(2-[2-[(4-[[(1S,2S)-4,6-Dichloro-2-(dimethylamino)-2,3-dihydro-1H-inden-1-yl]oxy]-5-fluoro-2-methylbenzene)sulfonamido]ethoxy]ethoxy)ethyl]-1-[4-([[2-(2-[2-[(4-[[(1S,2S)-4,6-dichloro-2-(dimethylamino)-2,3-dihydro-1H-inden-1-yl]oxy]-5-fluoro-2-methylbenzene)sulfonamido]ethoxy]ethoxy)ethyl]carbamoyl]amino)butyl]urea]	C (>70%)	C (NHE3 pIC50 > 7)
N#Cc1cc(Cl)cc2c1C[C@H](N1CCNCC1)[C@H]2Oc1ccc(S(=O)(=O)N2CCC(NC(=O)CCCNC(=O)NCCCCNC(=O)NCCCC(=O)NC3CCN(S(=O)(=O)c4ccc(O[C@H]5c6cc(Cl)cc(C#N)c6C[C@@H]5N5CCNCC5)cc4)CC3)CC2)cc1 [Example 120, N^1,N^18-Bis(1-([4-([(1S,2S)-6-chloro-4-cyano-2-(piperazin-1-yl)-2,3-dihydro-1H-inden-1-yl]oxy)phenyl]sulfonyl)piperidin-4-yl)-6,13-dioxo-5,7,12,14-tetraazaoctadecanediamide]	C (>70%)	C (NHE3 pIC50 > 7)
